# Source: the SangsterLogP compilation
# Test: not given
row,logP,Structure (SMILES)
1,2.73,O=c1[nH]c2ccccc2n1CCCN1CCN(C(c2ccccc2)c2ccccc2)CC1

# Test: method code SF, from DOI: 10.1063/1.555833
row,logP,Structure (SMILES)
1,2.92,Cc1nn(-c2ccccc2)c(N)c1-c1ccccc1
2,2.16,CC(=O)n1cc(C2=C(O)C(C)(C)CCC2=O)c2ccccc21
3,1.53,COc1ccc(-c2c(C)noc2N)cc1OC
4,1.33,COc1ccc(-c2c(C)n[nH]c2N)cc1OC
5,0.85,COc1ccc(-c2cn[nH]c2N)cc1OC
6,3.58,Cc1cc2c(c3c1[nH]c1ccccc13)C(=O)CC(C)(C)C2
7,2.52,Nc1c(-c2ccccc2)cnn1-c1ccccc1
8,1.37,CCc1n[nH]c(N)c1-c1ccc(OC)c(OC)c1
9,2.39,Nc1[nH]nc(Cc2ccccc2)c1-c1ccccc1
10,1.96,CCc1n[nH]c(N)c1-c1ccccc1
11,2.48,O=C1Cc2ccccc2C(c2ccc([N+](=O)[O-])cc2)N1 (configuration not stated)
12,2.26,CCCCN1C(=O)c2ccc([N+](=O)[O-])cc2C1=O
13,0.48,COc1ccc(-c2cnoc2N)cc1OC
14,2.85,O=C(NCCCCCCNC(=O)c1ccccc1O)c1ccccc1O
15,2.82,CCc1nn(-c2ccccc2)c(N)c1-c1ccc(OC)c(OC)c1
16,1.94,COc1ccc(Cc2nc3ccccc3c(=O)n2N)cc1OC
